Source: paper PMC9665079, “Structure-activity exploration of a small-molecule allosteric inhibitor of T790M/L858R double mutant EGFR” (Journal of Enzyme Inhibition and Medicinal Chemistry, 2022)

Tests used:
[1] = test system: H1975 lung cancer cell line expressing the double mutant L858R/T790M EGFR; experiment: Cell proliferation / viability by MTS assay in H1975 cells; assay type: cell-based; settings: 72 hours, micromolar concentrations
Experimental: Compounds 15 and 18 were then tested in cell proliferation assays on the H1975 lung cancer cell line expressing the double mutant L858R/T790M EGFR.
(§1) Figure 3. Activity of compounds 15 and 18 in H1975 cells. (A) Cell viability was measured by MTS assay. (B) EGFR phosphorylation was assessed by Western blot after 8-h incubation with the compounds (10 µM). Total EGFR and actin are shown for loading control. […]
(§2) 3-nitroaniline 1a (119 mg); 4-fluoro-3-(iminomethyl)phenyl acetate 2h (181 mg); 5-fluoro-2-methyl-1H-indole 3b (149 mg); purification: procedur b, […]
In vitro kinase assays were performed using the EGFR(T790M/L858R) Kinase Assay Kit (BPS Bioscience, Cat. #40322) in the presenc e of compounds or vehicle . Assays conditions were set according to the manufacturer’s instructions. […]
(§3) For cytotoxicity assays, compounds were added to cells in 96-well plates for 72 hours. Cell viability was measured by MTS assay using the CellTiter 96® AQueous One Solution Cell Proliferation Assay System (Promega, Madison, WI, USA) according to instructions. Inhibition of EGFR was assessed by Western blotting after incubating the cells with the compounds for 8 hours. […]
(§4) Chemiluminescence was detected using a ChemiDoc XRS+ System (Bio-Rad, Hercules, CA, USA) and Image Lab software (Bio-Rad). […]

[2] = test system: phospho-EGFR (Tyr1068) in H1975 cells; experiment: EGFR phosphorylation by Western blot in H1975 cells; assay type: cell-based; settings: Western blot after 8-h incubation, 10 µM
Experimental: as §1, §2
In vitro kinase assays were performed using the EGFR(T790M/L858R) Kinase Assay Kit (BPS Bioscience, Cat. #40322) in the presenc e of compounds or vehicle . Assays conditions were set according to the manufacturer’s instructions. Dose -response curves were fitted by non -linear regression of normalized enzyme activity vs log[inhibitor] data, using GraphPad Prism software.
as §3, §4

[3] = target: T1, EGFR(T790M/L858R) (Homo sapiens, UniProt P00533, L858R/T790M); experiment: In vitro non-radioactive kinase assay, EGFR(T790M/L858R) Kinase Assay Kit (BPS Bioscience); assay type: biochemical; settings: for IC50: EGFR(T790M/L858R) Kinase Assay Kit, concentration inhibiting 50% enzyme activity, read-out: IC50 (μM) ± Std. Dev.; for Activity on mutant EGFR in kinase assay (in words): compared with compound 4, five independent experiments
T1 construct: purchased BPS Bioscience 40322
Experimental: In vitro kinase assays were performed using the EGFR(T790M/L858R) Kinase Assay Kit (BPS
Bioscience, Cat. #40322) in the presenc e of compounds or vehicle . Assays conditions were set
according to the manufacturer’s instructions. Dose -response curves were fitted by non -linear
regression of normalized enzyme activity vs log[inhibitor] data, using GraphPad Prism software. […]

[4] = test system: mutant EGFR H1650 cell line; design: method as in PMID 29766737; settings: read-out: IC50 anti-proliferative activity; cited from earlier work
[5] = test system: T790M/L858R double mutant EGFR; design: method as in PMID 29766737; settings: type III allosteric inhibitor of T790M/L858R double mutant EGFR; cited from earlier work
[6] = test system: wt EGFR H1299 cell line; design: method as in PMID 29766737; settings: read-out: IC50 anti-proliferative activity; cited from earlier work
[7] = test system: double mutant H1975 cell line; design: method as in PMID 29766737; settings: read-out: IC50 anti-proliferative activity; cited from earlier work

Compound | IC50 [3] [µM] | Activity on mutant EGFR in kinase assay (in words) [3] | also measured
Cc1[nH]c2ccccc2c1C(Nc1cccc([N+](=O)[O-])c1)c1ccccc1O (stereo not shown) [Compound 15] | 33 ± 4 | significantly improved activity with respect to 4 | Inhibition of cell proliferation (in words) [1]: inhibited cell proliferation; Inhibition of EGFR phosphorylation (in words) [2]: inhibited
Cc1[nH]c2ccc(F)cc2c1C(Nc1cccc([N+](=O)[O-])c1)c1ccccn1 (stereo not shown) [Compound 7] | 123 ± 17 |  | 
COc1ccc(F)cc1C(Nc1cccc([N+](=O)[O-])c1)c1c(C)[nH]c2ccccc12 (stereo not shown) [Compound 14] |  | lack of activity | 
Cc1[nH]c2ccccc2c1C(Nc1cccc([N+](=O)[O-])c1)c1ccccn1 (stereo not shown) [Compound 4] | 154 ± 11 |  | IC50 [4]: 19 ± 2 µM; EC50 [5]: 6.2 ± 0.5 µM; IC50 [6]: 14.5 ± 0.3 µM; IC50 [7]: 24 ± 2 µM
Cc1[nH]c2ccccc2c1C(Nc1cccc([N+](=O)[O-])c1)c1cc(F)ccc1O (stereo not shown) [Compound 17] | 63 ± 12 |  | 
Cc1[nH]c2ccccc2c1C(Nc1cccc([N+](=O)[O-])c1)c1ncccc1O (stereo not shown) [Compound 12] | 96 ± 30 |  | 
O=[N+]([O-])c1cccc(NC(c2ccccn2)c2c[nH]c3ccccc23)c1 (stereo not shown) [Compound 8] | 95 ± 31 |  | 
Cc1[nH]c2ccccc2c1C(Nc1cccc([N+](=O)[O-])c1)c1ccccc1 (stereo not shown) [Compound 13] |  | lack of activity | 
Cc1[nH]c2ccccc2c1C(Nc1cccc([N+](=O)[O-])c1)c1cc(O)ccc1F (stereo not shown) [Compound 18] | 27 ± 5 | significantly improved activity with respect to 4 | Inhibition of cell proliferation (in words) [1]: inhibited cell proliferation; Inhibition of EGFR phosphorylation (in words) [2]: inhibited
